# Test results published in patent publication US20130040937A1, “INHIBITORS FOR TREATING AND PREVENTING HEART FAILURE IN FELINES” (BOEHRINGER INGELHEIM VETMEDICA GMBH, priority 2011, published 2013).
# Like-named read-outs stand apart in the source and are kept apart here.
# Key:
# [1] = system: left atrial systolic and global function; conditions: feline CMP; cited from earlier work
# [2] = system: cats suffering from HF due to HCM; assay: Blinded, controlled, randomised efficacy field study in HCM cats; type: in vivo; set-up: key to Right heart enlargement (score): Score 1: normal size; Score 2: mild enlargement; Score 3: moderate enlargement; Score 4: severe enlargement; conditions: HCM cat; for Right heart enlargement (score): X-ray
# Description: A blinded, controlled, randomised, efficacy field study was conducted with HCM cats receiving cilobradine (initial dose: 0.2 mg/kg po. twice daily) or a placebo (dose: 0.0 mg/kg po. twice daily) for 85 days. The dose of cilobradine could be adjusted during the study (dose range 0.1-0.5 mg/kg per-oral twice daily). The administration of furosemide was allowed in both groups. All cats were hospitalised in the first week of the study (study days 1-6), and they were allowed to go home afterwards (study days 7-85).
# Cats with a diagnosis of HCM were included in the study. The diagnosis of HCM was established by using echocardiography showing global, regional or segmental thickness of the interventricular septum and/or left ventricular free-wall in diastole greater than 6 mm. Further inclusion criteria were: systolic blood pressure less than 170 mmHg; serum thyroxine (T4) was normal; and body weight was higher than 2 kg.
# The owner provided a signed informed consent for the animal to enter the study. Cats that suffered from heart disease were scored using a 4 point score adapted from the ISACHC as follows: • Score 1: presence of heart disease associated with no clinical signs but detectable (e,g, auscultation, echocardiography and radiography); • Score 2: clinical signs of heart failure evident and adversely affect the quality of life. Typical signs include dyspnea/tachypnea, pulmonary congestion, weakness/lethargy, anorexia, exercise intolerance; • Score 3: clinical signs of advance heart failure immediately obvious. These clinical signs could have included respiratory distress, marked ascites/pulmonary congestion, profound exercise intolerance or hypoperfusion at rest; and • Score 4: severe cases: subject was moribund, suffered from cardiogenic shock or acute posterior paresis/paralysis. Hospitalization was mandatory.
# Cats having one or more of the following criteria were excluded: • a) The cat had received one or more of the following pretreatments: calcium channel blockers, e.g. diltiazem, angiotensin converting enzyme inhibitors, f3-blockers, acetylsalicylic acid, or digitales glycosides. (Cats pre-treated with furosemide alone were allowed to be included in either of the groups if they matched all inclusion criteria above.) • b) Elevated serum T4 level; • c) Elevated serum blood urea nitrogen (BUN) levels higher than 90 mg/dL or elevated serum creatinine levels higher than 3 mg/dL; • d) Systolic arterial blood pressure greater than or equal to 170 mmHg; • e) Dilated cardiomyopathy (DCM); • f) Suffered from heart disease with a score of 4 (adapted ISACHC score) or with no documented episode of heart failure (score 2 or 3) within 30 days before enrollment; • g) Fixed aortic stenosis; • h) Were pregnant or lactating queens; • i) Were nursing kittens; • j) Body weight less than 2 kg; or • k) Presence of sinus bradycardia (heart rate less than 120 bpm at consultation).
# The cat's quality of life was assessed on a daily basis using the following grading system: 1 (better), 2 (equal), 3 (worse).
# Furthermore, right heart enlargement was assessed by X-ray using the following scoring system: Score 1: normal size; Score 2: mild enlargement; Score 3: moderate enlargement; and Score 4: severe enlargement. Mild enlargement of the right side of the heart was observed using X-ray in the cat receiving a placebo at the end of the study. In contrast, the right side of the heart was normal in the cat receiving cilobradine throughout the study (see Table 10).
# heart rate [3] = assay: Heart rate after oral administration in humans; type: in vivo, human; conditions: over 9 h following administration, 5, 10, 20 mg per subject
# Description: (§1) Cilobradine chloride salt was administered at a dose of 5, 10 and 20 mg per subject in the form of capsules. These doses are equal to 0.07, 0.14, and 0.28 mg/kg cilobradine chloride salt assuming a body weight of 70 kg. […] Cilobradine hydrochloride was administered at a dose of 0.1 mg/kg and 0.3 mg/kg as a suspension. […] There are some differences between cats and humans in terms of pharmacokinetics of cilobradine, which might be related to differences in absorption, metabolisation, distribution, or excretion.
# Ih channel = conditions: literature (Neuroscience 1994; Br J Pharmacol 1998); cited from earlier work
# [4] = Pharmacokinetics in healthy cats, once daily po. for 4 days; type: in vivo; conditions: cat
# Description: as §1
# heart rate [5] = assay: Pharmacodynamic profile (telemetric heart rate) in the conscious cat; type: in vivo
# Description: as §1
# The pharmacodynamic profile of cilobradine hydrochloride was characterised at two dose levels administered by the oral route, once and twice daily, in the conscious cat. The study involved 2 groups of 3 male European Short Hair cats weighing between 4.15 kg and 4.75 kg on the day of the first treatment. Each cat was dosed with cilobradine hydrochloride once (sid) and twice (bid) daily successively at 0.1 or 0.3 mg/kg in a cross over-design. Each treatment was separated by an interval of 24 hours (sid) or 12 hours (bid). A washout period of 7 days was scheduled between the 2 dosing periods. Cats were previously instrumented with telemetric transmitters for heart rate measurements. Telemetric measurements were recorded for 15 seconds every 5 minutes at a sampling rate of 500 Hz on D-2, D-1, from D0 up to D9 and from D16 up to D25 except for D4 and D20 during blood sampling.
# [6] = Pharmacokinetics in healthy human male subjects, once daily po. for 7 days; type: in vivo
# Description: as §1
# healthy cats = assay: Effects on vasomotor tone, myocardial contractility and lusitropy in healthy cats; type: in vivo, cat; conditions: therapeutically relevant doses
# Description: “Funny If current inhibitors”, also referred to as “If channel blockers” or “If current inhibitors” herein, relate to If inhibitors including pharmaceutically acceptable salts thereof, which selectively block hyperpolarization-activated cyclic nucleotide-gated channels (HCN) in cardiac conductive tissue, channels responsible for the transmembrane current known as If. It is through blockade of this current that If channel blockers are assumed to produce their specific bradycardic effect. HCN channels are widely distributed in the nervous system and in the eye they mediate the current known as Ih. The effect of zatebradine and cilobradine on the Ih channel has also been investigated (See Neuroscience, Vol. 59(2), pp. 363-373, 1994 for zatebradine, and British Journal of Pharmacology, Vol. 125, pp. 741-750, 1998 for cilobradine). […] Cilobradine in particular reduces the heart rate in the sinoatrial node of the heart by selective blockade of If channels (“funny channels”) through a direct interaction with predominantly HCN4 channels. This blockage is potent and has a dosage and voltage dependency. Because of the high selectivity to the If current, effects on vasomotor tone or myocardial contractility and lusitropy are not observed at therapeutically relevant doses in healthy cats. […]
# Lipophilicity profile = type: physicochemical; conditions: neutral pH versus acidic pH
# Description: Usually, EC/HPMC films show a sustained release behaviour that is independent of pH. […] This profile, together with the coating applied, may have led to a slower release.
# [7] = system: healthy cats and cats with hypertrophic cardiomyopathy; conditions: cited from earlier work
compound,measurement,setting,value
CC(C)NCC(O)COc1ccc(CC(N)=O)cc1 (stereo not shown) [atenolol],left atrial systolic and global function,[1],significantly decreased
"COc1ccc(CCN2CCC[C@H](CN3CCc4cc(OC)c(OC)cc4CC3=O)C2)cc1OC [Cilobradine, (+)-3-[(N-(2-(3,4-dimethoxy-phenyl)ethyl)-piperidin-3-(S)-yl)-methyl]-(7,8-dimethoxy-1,3,4,5-tetrahydro-2H-3-benzazepin-2-on)]",reduction of the interventricular septal thickness in systole compared to placebo,[2],considerably greater
same,Interventricular septal thickness in systole,[2]; SD 0 (baseline),11.7 mm
same,Heart rate,"[2]; SD 0 (baseline), initial dose 0.2 mg/kg po. twice daily",152 beats per minutes
same,Heart rate,[2]; SD 7,120 beats per minutes
same,Heart rate,[2]; SD 28,144 beats per minutes
same,Heart rate,[2]; SD 56,124 beats per minutes
same,Heart rate,[2]; SD 84,210 beats per minutes
same,Interventricular septal thickness in systole,[2]; SD 84,7.5 mm
same,Right heart enlargement (score),[2]; SD 0 (baseline),1
same,Right heart enlargement (score),[2]; SD 84,1
same,quality of life,"[2]; daily owner grading 1 (better), 2 (equal), 3 (worse), FIG. 1",almost continuous improvement
same,heart rate (in words),"[2]; study period, versus placebo cat",reduced throughout the study
same,right side of the heart (X-ray),[2]; throughout the study,normal
same,heart rate reduction,heart rate [3],dose dependent heart rate reduction
same,block of Ih,Ih channel,can also be blocked
same,Half-life,"[4]; in vivo, healthy cats, once daily po. for 4 days, 0.1 and 0.3 mg/kg, read-out: half-life",2.53 to 3.52 h
same,heart rate reduction,"heart rate [5]; cats, over 9 h following administration, 0.1 and 0.3 mg/kg",dose dependent heart rate reduction
same,Half-life,"[6]; in vivo, healthy human male subjects, once daily po. for 7 days, 5-20 mg per subject, read-out: half-life",10.1 to 13.9 h
same,effects on vasomotor tone or myocardial contractility and lusitropy,healthy cats,not observed
COc1ccc(CCN2CCC[C@H](CN3CCc4cc(OC)c(OC)cc4CC3=O)C2)cc1OC.Cl [cilobradine hydrochloride],lipophilicity profile,Lipophilicity profile,slightly more lipophilic at neutral pH values
same,Half-life,"[4]; 0.1 mg/kg, suspension, once daily po. 4 days",3.52 h
same,Half-life,"[4]; 0.3 mg/kg, suspension, once daily po. 4 days",2.53 h
same,bradycardia,"heart rate [5]; conscious cat, oral 0.1 and 0.3 mg/kg per day, sid and bid",dose-dependent bradycardia
same,Half-life,"[6]; human, 5 mg/subject (0.07 mg/kg), capsules, once daily po. 7 days",13.9 h
same,Half-life,"[6]; human, 10 mg/subject (0.14 mg/kg), capsules, once daily po. 7 days",13.0 h
same,Half-life,"[6]; human, 20 mg/subject (0.28 mg/kg), capsules, once daily po. 7 days",10.1 h
"COc1ccc(CCN(C)CCCN2CCc3cc(OC)c(OC)cc3CC2=O)cc1OC [zatebradine, reference compound]",block of Ih,Ih channel,can also be blocked
"COc1cc2c(cc1OC)CC(=O)N(CCCN(C)C[C@H]1Cc3cc(OC)c(OC)cc31)CC2 [ivabradine, 3-[3-[[[(7S)-3,4-dimethoxybicyclo[4.2.0]octa-1,3,5-trien-7-yl]methyl]methylamino]propyl]-1,3,4,5-tetrahydro-7,8-dimethoxy-2H-3-benzazepin-2-one]",heart rate reduction,[7]; healthy cats,significant heart rate reduction
same,"negative chronotropic effect, dose relation",[7]; healthy cats,dose-dependency
same,heart rate reduction,[7]; subclinical HCM cats,significant heart rate reduction
